In PubChem BioAssay AID330 (DTP/NCI, 2004):
Several values for one entry are separate records, joined by “and”; a condition that tells them apart may be missing. Equal values may be shown once. Inconclusive results and toxic doses are left out.

Test system: P388 leukemia ip, CD2F1 mice, survival T/C
Assay: NCI In Vivo Anticancer Drug Screen. Data for tumor model P388 Leukemia (intraperitoneal) in CD2F1 (CDF1) mice
Conditions: endpoint: median survival time, higher = longer survival
Experimental: The antitumor activity of compounds was measured in mice bearing transplantable tumors. Survival or tumor size were measured and the results are expressed as the measurement made in the treated group (T) divided by the measurement made in the vehicle treated control group (C). The tumor model used in this assay is P388 Leukemia (intraperitoneal) in CD2F1 (CDF1) mice

[1] = dose: 25.0 mg/kg/injection, schedule: Q01DX009 (ip), vehicle: saline with Tween-80
[2] = dose: 50.0 mg/kg/injection, schedule: Q01DX009 (ip), vehicle: saline with Tween-80
[3] = dose: 100.0 mg/kg/injection, schedule: Q01DX009 (ip), vehicle: saline with Tween-80
[4] = dose: 50.0 mg/kg/injection, schedule: Q01DX005 (ip), vehicle: saline with Tween-80
[5] = dose: 100.0 mg/kg/injection, schedule: Q01DX005 (ip), vehicle: saline with Tween-80

## CCSc1n[nH]c(=O)n1C
dose: 50.0 mg/kg/injection, schedule: Q01DX005 (ip), vehicle: saline
  T/C: 99 % of control and 110 % of control
dose: 100.0 mg/kg/injection, schedule: Q01DX005 (ip), vehicle: saline
  T/C: 108 % of control and 114 % of control and 97 % of control
dose: 200.0 mg/kg/injection, schedule: Q01DX005 (ip), vehicle: saline
  T/C: 108 % of control and 121 % of control and 98 % of control
dose: 400.0 mg/kg/injection, schedule: Q01DX005 (ip), vehicle: saline
  T/C: 101 % of control and 109 % of control

## CCO[C@H]1c2cc3c(cc2[C@@H](c2cc(OC)c(OC)c(OC)c2)[C@H]2C(=O)OC[C@@H]21)OCO3
dose: 50.0 mg/kg/injection, schedule: Q01DX005 (ip), vehicle: Klucel (hydroxypropylcellulose) (HPC)
  T/C: 96 % of control
dose: 100.0 mg/kg/injection, schedule: Q01DX005 (ip), vehicle: Klucel (hydroxypropylcellulose) (HPC)
  T/C: 112 % of control

## OC1(C2CCCC2)C2C=CC1C1CCCCCCC12 (stereo unspecified)
dose: 100.0 mg/kg/injection, schedule: Q04DX002 (ip), vehicle: saline with Tween-80
  T/C: 100 % of control
dose: 200.0 mg/kg/injection, schedule: Q04DX002 (ip), vehicle: saline with Tween-80
  T/C: 100 % of control
dose: 400.0 mg/kg/injection, schedule: Q04DX002 (ip), vehicle: saline with Tween-80
  T/C: 97 % of control

## O=C(c1ccc2c(c1)C(=O)NC2=O)c1ccc2c(c1)C(=O)NC2=O
[1]
  T/C: 96 % of control
[2]
  T/C: 89 % of control
[3]
  T/C: 86 % of control

## CCCCCCCCCCCC(=O)NC1CC(O[C@H]2C[C@](O)(C(C)=O)Cc3c(O)c4c(c(O)c32)C(=O)c2c(OC)cccc2C4=O)OC(C)C1O (stereo partly specified)
dose: 0.75 mg/kg/injection, schedule: Q01DX009 (ip), vehicle: other
  T/C: 119 % of control
dose: 2.0 mg/kg/injection, schedule: Q04DX003 (ip), vehicle: other
  T/C: 91 % of control
dose: 4.0 mg/kg/injection, schedule: Q04DX003 (ip), vehicle: other
  T/C: 107 % of control
dose: 6.0 mg/kg/injection, schedule: Q01DX009 (ip), vehicle: other
  T/C: 150 % of control
dose: 8.0 mg/kg/injection, schedule: Q04DX003 (ip), vehicle: other
  T/C: 98 % of control
dose: 12.0 mg/kg/injection, schedule: Q01DX009 (ip), vehicle: other
  T/C: 158 % of control
dose: 16.0 mg/kg/injection, schedule: Q04DX003 (ip), vehicle: other
  T/C: 102 % of control and 111 % of control
dose: 32.0 mg/kg/injection, schedule: Q04DX003 (ip), vehicle: other
  T/C: 114 % of control and 120 % of control
dose: 64.0 mg/kg/injection, schedule: Q04DX003 (ip), vehicle: other
  T/C: 120 % of control
dose: 128.0 mg/kg/injection, schedule: Q04DX003 (ip), vehicle: other
  T/C: 123 % of control
dose: 256.0 mg/kg/injection, schedule: Q04DX003 (ip), vehicle: other
  T/C: 100 % of control

## Cc1ccc(C)c2c3c([nH]c12)-c1ccccc1CC3
[2]
  T/C: 103 % of control
[3]
  T/C: 107 % of control
dose: 200.0 mg/kg/injection, schedule: Q01DX009 (ip), vehicle: saline with Tween-80
  T/C: 103 % of control

## CCOC1=Cc2c(oc3c(C(C)(C)C)cc(OCC)cc23)OC(C(C)(C)C)=C1
dose: 3.12 mg/kg/injection, schedule: Q01DX009 (ip), vehicle: saline with Tween-80
  T/C: 103 % of control
dose: 6.25 mg/kg/injection, schedule: Q01DX009 (ip), vehicle: saline with Tween-80
  T/C: 92 % of control
dose: 12.5 mg/kg/injection, schedule: Q01DX009 (ip), vehicle: saline with Tween-80
  T/C: 100 % of control
[1]
  T/C: 100 % of control

## C=COC(=O)C(Cc1ccc(Cl)cc1)NC(=O)OCc1ccccc1 (stereo unspecified)
dose: 100.0 mg/kg/injection, schedule: Q04DX002 (ip), vehicle: Klucel (hydroxypropylcellulose) (HPC)
  T/C: 97 % of control
dose: 200.0 mg/kg/injection, schedule: Q04DX002 (ip), vehicle: Klucel (hydroxypropylcellulose) (HPC)
  T/C: 91 % of control
dose: 400.0 mg/kg/injection, schedule: Q04DX002 (ip), vehicle: Klucel (hydroxypropylcellulose) (HPC)
  T/C: 95 % of control

## COc1ccc2ccc3ccc(OC)c(OC(C)=O)c3c2c1
dose: 60.0 mg/kg/injection, schedule: Q01DX005 (ip), vehicle: Klucel (hydroxypropylcellulose) (HPC)
  T/C: 100 % of control
dose: 120.0 mg/kg/injection, schedule: Q01DX005 (ip), vehicle: Klucel (hydroxypropylcellulose) (HPC)
  T/C: 98 % of control
dose: 240.0 mg/kg/injection, schedule: Q01DX005 (ip), vehicle: Klucel (hydroxypropylcellulose) (HPC)
  T/C: 91 % of control

## CC(=O)Nc1cccc2[nH]c3ccccc3c(=O)c12
[4]
  T/C: 95 % of control
[5]
  T/C: 103 % of control
dose: 200.0 mg/kg/injection, schedule: Q01DX005 (ip), vehicle: saline with Tween-80
  T/C: 93 % of control

## CN(Cc1ccc2nc(N)[nH]c(=O)c2c1)c1ccc(C(=O)NC(CCC(=O)O)C(=O)O)cc1 (stereo unspecified)
[4]
  T/C: 95 % of control
[5]
  T/C: 102 % of control
